# Measurements reported in patent publication US10495627B2, “Apparatus and method for early diagnosis of cell death” (LYNCEE TEC S.A., priority 2010, dated 2019).
# “Also recorded” adds a separate entry of the source.
# Legend:
# [1] = test system: primary cultures of mouse cortical neurons; test: Mean phase value on cell bodies monitored over time by digital holographic microscopy (DHM) after glutamate-induced excitotoxic stimulation; type: cell-based
# Excerpt: The particular implementation is a transmission DHM setup making possible to monitor cells in time through phase measurement. The sketch of the optical arrangement of the measurement setup is shown in FIG. 3, where the light emitted by a light source is split into two beams and recombined to generate an interference producing a hologram on the camera. […] Phase images are reconstructed by a numerical method for off-axis digital hologram reconstruction.
# In the different experiments described below, the optical property, employed for cell death detection is the mean phase value measured on cell bodies and monitored during time. The phase value is intrinsically a relative measurement that has to be compared with a phase reference, usually taken as the phase shift induced by the perfusion medium. Physically, the phase value φ can thus be related to an optical path length (OPL) as
# [formula] where the indices i and m correspond respectively to the intracellular content of the cell and to the perfusion medium, h is the height of the cell at position (x, y) and n is the mean refractive index (RI) along the optical axis. The phase is measured by calculating a spatial averaging of the phase value on a constant surface contained in the cell body, to which a reference phase value measured on a zone of the field of view containing no biological material has been subtracted.
# The meaning of the phase measured with an interferometric method in this context is dependent on the height of the cell and on its intracellular RI. Therefore, the phase is linked both to the cell volume phenotype (through cell height), and to the intracellular content of cells phenotype (through RI), and thus indirectly to the osmotic regulation of the cell. The phase signal is therefore an indicator of cell volume regulation through both parameters, and can be indirectly linked to homeostasis through osmotic phenomena.
# This particular study is performed on primary cultures of mouse cortical neurons, mounted on coverslips for optical measurement. Before experiment, coverslips are mounted on a perfusion chamber used to apply the different solutions to the cells, which are immersed in a HEPES-buffered standard physiological perfusion medium. As an example of application of cell death detection through volume regulation, we present in the following a detection of neuronal death induced through glutamate-induced excitotoxic stimulation, ultimately leading to cell death. The glutamate is a neurotransmitter activating neuronal receptors, leading under strong exposure to high level of intracellular calcium concentration, which can lead to death pathway triggering if not regulated properly.
# (§1) In order to validate the measurement principle proposed in this application, the cell viability is also tested with trypan blue 0.4% reagent, to enable comparative measurements. The dye relies on probing the cell membrane integrity, which becomes permeable to the color compound at a certain level after cell death mechanisms started. After reagent wash-out, the cell nuclei of non-viable cells are consequently stained in blue, as the dye fixes on DNA material. Excitotoxic effects were studied during the experiments, by applying glutamate pulses at different concentration to the cells. The excitation solutions were prepared with concentrations ranging between 25 μM and 100 μM, depending on the type of experiment. Perfusion changes were performed by washing the chamber with a micropipette, making it possible to replace the perfusion medium through typically two washes of the medium.
# The mean phase value measured on four cell bodies is shown in FIG. 4(a), where the reagent has been applied several times on the culture with an interval of approximately one hour. […]
# [2] = test system: primary cultures of mouse cortical neurons; test: Cell viability tested with trypan blue 0.4% reagent after glutamate stimulation; type: cell-based; conditions: for trypan blue staining / time at which nucleus was stained by trypan blue (cell death): 90 seconds; for time at which cell death was confirmed with trypan blue: 120 seconds
# Procedure: as §1
# In order to enable color measurement for cell viability assessment with the reagent, a flip mirror is inserted after the MO, so that the intensity image could also be recorded in focus with a color camera. When performing trypan blue staining, the illumination is changed to employ an incoherent halogen white light source to enable color measurement; this implies that during dye probing, no DHM measurement is performed, yielding part of unmeasured phase signal during time monitoring. Image merging between the two measurement techniques could be done through calibration of the system by imaging an object whose shape is well-known.
# Brightfield color images of the culture, enabling the assessment through the trypan blue dye as a control experiment, are presented in FIGS. 4(b-c), respectively at t=30 min before the excitotoxic stimulation and t=290 min, where non viable cells are identified by the blue staining.
# [3] = glutamate 50 μM during 90 seconds, cell 4
structure (smiles),measurement,setting,value
N[C@@H](CCC(=O)O)C(=O)O [glutamate],phase variations,[1]; [3],below 10 °
same,time to retrieve the same mean phase value,[1]; [3],approximately 10 minutes
same,phase signal drop,"[1]; glutamate 50 μM during 90 seconds, three of four cells (cells 1 to 3)",approximately 40 °
same,phase response,"[1]; glutamate pulse 25 μM, 90 seconds, n=10 cells",reversible responses in phase; also recorded: only recovery curves
same,phase response,"[1]; glutamate pulse 50 μM, 90 s",mixed responses between recovery and death
same,phase response,"[1]; glutamate pulse 50 μM, 120 s",irreversible signals
same,trypan blue staining,"[2]; glutamate 25 μM, up to 4 hours and 30 minutes after stimulation",all cells being unstained
same,time at which nucleus was stained by trypan blue (cell death),"[2]; glutamate 50 μM, cell 1",116 min
same,time at which nucleus was stained by trypan blue (cell death),"[2]; glutamate 50 μM, cell 2",207 min
same,time at which nucleus was stained by trypan blue (cell death),"[2]; glutamate 50 μM, cell 3",252 min
same,trypan blue staining,"[2]; glutamate 50 μM, cell 4, several hours after exposure",remained unstained with a healthy morphology
same,time at which cell death was confirmed with trypan blue,"[2]; glutamate 50 μM, cell 3",385 min
same,time at which cell death was confirmed with trypan blue,"[2]; glutamate 50 μM, cells 1 and 2",323 min
